Test results as given in patent US4769368A, “2,3,4,8,9,9A-Hexahydro-4-aryl-1H-indeno(1,7-CD)azepines” (SmithKline Beckman Corporation, priority 1986, dated 1988).
Structures can show the parent of a compound that is named as a salt.

Key:
[1] = test system: D2-dopamine sites (bovine pituitary); assay: Displacement of [3H] spiroperidol, bovine pituitary (D2) binding; details: at 10^-5 M, 10 µM
Excerpt: (§1) As an example of the D1 -dopamine specificity of the compounds of this invention, a species of formula I, 6,7-dihydroxy-2,3,4,8,9-9a-hexahydro-4-phenyl-1H-indeno[1,7-cd]azepine hydrobromide, was submitted to standard binding tests for D1 and D2 -dopamine sites, see K. Flaim, loc. cit. for testing protocols.
[^3 H] spiroperidol bovine

[2] = biological target: T1, D1-dopamine sites (rat caudate) (Rattus norvegicus, UniProt P18901); assay: Displacement of [3H] fenoldopam, rat caudate (D1) binding; details: in words
T1 construct: rat caudate; from tissue; host or cells: rat caudate
T1 sequence (P18901 whole entry): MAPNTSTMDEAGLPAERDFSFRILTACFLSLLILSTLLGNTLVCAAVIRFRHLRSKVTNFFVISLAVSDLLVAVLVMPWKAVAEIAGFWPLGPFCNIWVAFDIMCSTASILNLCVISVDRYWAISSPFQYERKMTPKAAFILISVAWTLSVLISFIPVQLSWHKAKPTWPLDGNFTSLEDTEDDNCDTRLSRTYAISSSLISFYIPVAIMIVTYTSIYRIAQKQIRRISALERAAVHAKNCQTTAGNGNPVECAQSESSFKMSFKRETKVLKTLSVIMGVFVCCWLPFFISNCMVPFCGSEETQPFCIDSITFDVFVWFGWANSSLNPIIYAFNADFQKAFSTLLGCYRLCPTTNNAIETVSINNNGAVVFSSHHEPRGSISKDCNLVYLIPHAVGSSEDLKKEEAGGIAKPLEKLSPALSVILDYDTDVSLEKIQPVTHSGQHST
Excerpt: as §1
[^3 H] fenoldopam rat caudate

[3] = in words; peripheral dopaminergic agent; cited from earlier work
[4] = test system: dopamine D1 and D2 receptor; details: in words; U.S. Pat. No. 4,197,297; cited from earlier work

| Structure (SMILES) | Displacement of [3H] spiroperidol bovine pituitary (D2) [1] [%] | potency and selectivity for D1 dopamine sites [2] | described activity [3] | agonist activity [4] |
| --- | --- | --- | --- | --- |
| Oc1cc2c3c(c1O)CC[C@H]3CNC[C@H]2c1ccccc1 (stereo in doubt) [cis, cis-6,7-dihydroxy-2,3,4,8,9,9a-hexahydro-4-phenyl-1H-indeno[1-7-cd]azepinehydrobromide] | 14 | very potent and selective | – | – |
| Br.Oc1cc2c3c(c1O)CC[C@@H]3CNC[C@@H]2c1ccccc1 (stereo in doubt) [trans, trans-6,7-dihydroxy-2,3,4,8,9,9a-hexahydro-4-phenyl-1H-indeno[1,7-cd]azepine hydrobromide] | 0 | – | – | – |
| Oc1ccc(C2CNCCc3c2cc(O)c(O)c3Cl)cc1 (centres unmarked) [fenoldopam] | – | – | renal dilating, anti-hypertensive, anti-shock and anti-congestive heart failure activity | D1 and some D2 agonist activity |
